≈ marks a conversion by molar mass, not a printed value. Where a name gives a salt, the structure may show the parent alone. Read-outs that look alike come from different tables or passages of the source.
Legend:
A. calcoaceticus No. 4 = experiment: in vitro antibacterial activity, agar plate dilution method (MIC); assay type: cell-based, Acinetobacter calcoaceticus; details: Acinetobacter calcoaceticus, NO.4, 16 h, 10^6 CFU/ml
How it was run: (§1)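 Agar plate dilution on Mueller Hinton agar containing graded compound levels, inoculated at 10^6 CFU/ml from overnight Mueller Hinton broth cultures. MIC (μg/ml) read after 16 h at 37°C.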

P. vulgaris HX-19 = experiment: as above; assay type: cell-based; details: P. vulgaris HX-19, 10^6 CFU/ml; for MIC: Proteus vulgaris, HX19, 16 h, read-out: Minimum Inhibitory Concentration (MIC)
How it was run: as §1

K. pneumoniae PCI-602 = experiment: as above; assay type: cell-based; details: 10^6 CFU/ml; for MIC: Klebsiella pneumoniae, PCI602, 16 h, read-out: Minimum Inhibitory Concentration (MIC), K. pneumoniae PCI-602
How it was run: as §1

P. vulgaris No. 33 = experiment: as above; assay type: cell-based; details: 10^6 CFU/ml; for MIC: Proteus vulgaris
How it was run: as §1

K. oxytoca GN10650 = experiment: as above; assay type: cell-based; details: 10^6 CFU/ml; for MIC: Klebsiella oxytoca, GN10650, 16 h, read-out: Minimum Inhibitory Concentration (MIC), *K. oxytoca GN10650, lactamase-producing strain
How it was run: as §1

E. coli NIHJ JC2 = experiment: as above; assay type: cell-based; details: for MIC: Escherichia coli
How it was run: as §1

K. pneumoniae No. 42 = experiment: as above; assay type: cell-based; details: 10^6 CFU/ml; for MIC: Klebsiella pneumoniae
How it was run: as §1

S. aureus 209P NIHJ-JC1 = experiment: as above; assay type: cell-based; details: for MIC: Staphylococcus aureus, 16 h
How it was run: as §1

E. cloacae Nek 39 = experiment: as above; assay type: cell-based; details: Enterobacter cloacae, NEK39, 16 h, 10^6 CFU/ml
How it was run: as §1

S. marcescens No. 16-2 = experiment: as above; assay type: cell-based; details: Serratia marcescens, NO.162, 16 h
How it was run: as §1

E. cloacae 963 = experiment: as above; assay type: cell-based; details: 10^6 CFU/ml
How it was run: as §1

E. coli GN5482 = experiment: as above; assay type: cell-based; details: Escherichia coli
How it was run: as §1

M. morganii GN5407 = experiment: as above; assay type: cell-based; details: 10^6 CFU/ml; for MIC: Morganella morganii
How it was run: as §1

S. marcescens IAM 1184 = experiment: as above; assay type: cell-based; details: Serratia marcescens, IAM1184, 16 h, S. marcescens IAM 1184; 10^6 CFU/ml; read-out: Minimum Inhibitory Concentration (MIC)
How it was run: as §1

Ps. aeruginosa IF03445 = experiment: as above; assay type: cell-based, Pseudomonas aeruginosa; details: 10^6 CFU/ml; for MIC: Pseudomonas aeruginosa
How it was run: as §1

Ps. aeruginosa AKR17 = experiment: as above; assay type: cell-based, Pseudomonas aeruginosa; details: 10^6 CFU/ml; for MIC: Pseudomonas aeruginosa
How it was run: as §1

Ps. aeruginosa AK 109 = experiment: as above; assay type: cell-based, Pseudomonas aeruginosa; details: 10^6 CFU/ml; for MIC: Pseudomonas aeruginosa, AK109, 16 h
How it was run: as §1

E. coli CSH2 (RK1) = experiment: microbe, parasite or virus in culture; assay type: cell-based; details: 10^6 CFU/ml; for MIC: Escherichia coli, 16 h, read-out: Minimum Inhibitory Concentration (MIC), *E. coli CSH2 (RK1), lactamase-producing strain
How it was run: as §1

E. coli CSH(RE45) = experiment: microbe, parasite or virus in culture; assay type: cell-based; details: 10^6 CFU/ml; for MIC: Escherichia coli, 16 h, read-out: Minimum Inhibitory Concentration (MIC), *E. coli CSH(RE45), lactamase-producing strain
How it was run: as §1

Ps. cepacia 23 = experiment: in vitro antibacterial activity, agar plate dilution method (MIC); assay type: cell-based, Pseudomonas cepacia; details: read-out: Minimum Inhibitory Concentration (MIC)
How it was run: as §1

[1] = read-out: Minimum Inhibitory Concentration (MIC), A. calcoaceticus No. 4
[2] = read-out: Minimum Inhibitory Concentration (MIC), *E. cloacae Nek 39, lactamase-producing strain
[3] = read-out: Minimum Inhibitory Concentration (MIC), *S. marcescens No. 16-2, lactamase-producing strain, 10^6 CFU/ml
[4] = Enterobacter cloacae, 16 h, E. cloacae 963, read-out: Minimum Inhibitory Concentration (MIC)
[5] = Burkholderia cepacia, 16 h, Ps. cepacia 23, 10^6 CFU/ml
[6] = read-out: Minimum Inhibitory Concentration (MIC)

SMILES: Nc1nc(C(=NOC(C(=O)O)c2ccccc2)C(=O)NC2C(=O)N3C(C(=O)O)=C(CSc4nc(C(=O)O)c(-c5ccc(O)c(O)c5)s4)CSC23)cs1 (single isomer, unassigned) [Example 51 DA]
- MIC (A. calcoaceticus No. 4; [1]): 0.1 µg/mL (≈ 0.127 µM)
- Minimum Inhibitory Concentration (MIC) (P. vulgaris HX-19): 0.2 µg/mL
- Minimum Inhibitory Concentration (MIC) (K. pneumoniae PCI-602; K. pneumoniae PCI-602): 0.0125 µg/mL
- Minimum Inhibitory Concentration (MIC) (P. vulgaris No. 33; *P. vulgaris No. 33, lactamase-producing strain): 0.39 µg/mL
- Minimum Inhibitory Concentration (MIC) (K. oxytoca GN10650; *K. oxytoca GN10650, lactamase-producing strain): 0.1 µg/mL
- Minimum Inhibitory Concentration (MIC) (E. coli NIHJ JC2; E. coli NIHJ JC2, 10^6 CFU/ml, 37° C., 16 hours): 3.12 µg/mL
- Minimum Inhibitory Concentration (MIC) (K. pneumoniae No. 42; *K. pneumoniae No. 42, lactamase-producing strain): 0.2 µg/mL
- Minimum Inhibitory Concentration (MIC) (S. aureus 209P NIHJ-JC1; S. aureus 209P NIHJ-JC1, 10^6 CFU/ml, 37° C., 16 hours): 100 µg/mL
- MIC (E. cloacae Nek 39; [2]): 0.1 µg/mL (≈ 0.127 µM)
- MIC (S. marcescens No. 16-2; [3]): 1.56 µg/mL (≈ 1.99 µM)
- MIC (E. cloacae 963; [4]): 0.2 µg/mL (≈ 0.255 µM)
- MIC (E. coli GN5482; GN5482, 16 h, read-out: Minimum Inhibitory Concentration (MIC), *E. coli GN5482, lactamase-producing strain, 10^6 CFU/ml): 1.56 µg/mL (≈ 1.99 µM)
- Minimum Inhibitory Concentration (MIC) (M. morganii GN5407; *M. morganii GN5407, lactamase-producing strain): 0.2 µg/mL
- MIC (S. marcescens IAM 1184): 0.1 µg/mL (≈ 0.127 µM)
- Minimum Inhibitory Concentration (MIC) (Ps. aeruginosa IF03445; Ps. aeruginosa IF03445): 1.56 µg/mL
- Minimum Inhibitory Concentration (MIC) (Ps. aeruginosa AKR17; Ps. aeruginosa AKR17): 1.56 µg/mL
- Minimum Inhibitory Concentration (MIC) (Ps. aeruginosa AK 109; Ps. aeruginosa AK 109): 1.56 µg/mL
- Minimum Inhibitory Concentration (MIC) (E. coli CSH2 (RK1); *E. coli CSH2 (RK1), lactamase-producing strain): 0.05 µg/mL
- Minimum Inhibitory Concentration (MIC) (E. coli CSH(RE45); *E. coli CSH(RE45), lactamase-producing strain): 0.1 µg/mL
- MIC (Ps. cepacia 23; [5]): < 0.006 µg/mL

SMILES: Nc1nc(C(=NOC2(C(=O)O)CC2)C(=O)NC2C(=O)N3C(C(=O)O)=C(CSc4nc(-c5ccc(O)c(O)c5)cs4)CSC23)cs1 (stereo not drawn) [Ex. 45, disodium 7β-[2-(2-aminothiazol-4-yl)-2-(1-carboxvlate-1-cyclopropoxyimino)acetamido]-3-[4-(3,4-dihvdroxvphenyl)thiazol-2-yl]thiomethyl-3-cephem-4-carboxylate]
- MIC (A. calcoaceticus No. 4; [1]): 0.1 µg/mL
- MIC (P. vulgaris HX-19): < 0.006 µg/mL
- MIC (K. pneumoniae PCI-602): < 0.006 µg/mL
- MIC (P. vulgaris No. 33; NO.33, 16 h, read-out: Minimum Inhibitory Concentration (MIC), *P. vulgaris No. 33, lactamase-producing strain): 0.025 µg/mL
- MIC (K. oxytoca GN10650): 0.1 µg/mL
- MIC (E. coli NIHJ JC2; NIHJJC2, 16 h, read-out: Minimum Inhibitory Concentration (MIC), E. coli NIHJ JC2, 10^6 CFU/ml, 37° C.): 0.2 µg/mL
- MIC (K. pneumoniae No. 42; NO.42, 16 h, read-out: Minimum Inhibitory Concentration (MIC), *K. pneumoniae No. 42, lactamase-producing strain): 0.1 µg/mL
- MIC (S. aureus 209P NIHJ-JC1; read-out: Minimum Inhibitory Concentration (MIC), S. aureus 209P NIHJ-JC1, 10^6 CFU/ml, 37° C., 16 hours): 6.25 µg/mL
- MIC (E. cloacae Nek 39; [2]): 0.05 µg/mL
- MIC (S. marcescens No. 16-2; [6]): 0.39 µg/mL
- MIC (E. cloacae 963; Enterobacter cloacae, 963, 16 h, read-out: Minimum Inhibitory Concentration (MIC), E. cloacae 963): 0.05 µg/mL
- MIC (E. coli GN5482; GN5482, 16 h, read-out: Minimum Inhibitory Concentration (MIC)): 0.39 µg/mL
- MIC (M. morganii GN5407; GN5407, 16 h, read-out: Minimum Inhibitory Concentration (MIC), *M. morganii GN5407, lactamase-producing strain): 0.05 µg/mL
- MIC (S. marcescens IAM 1184): 0.05 µg/mL
- MIC (Ps. aeruginosa IF03445; IF03445, 16 h, read-out: Minimum Inhibitory Concentration (MIC), Ps. aeruginosa IF03445): 0.78 µg/mL
- MIC (Ps. aeruginosa AKR17; AKR17, 16 h, read-out: Minimum Inhibitory Concentration (MIC), Ps. aeruginosa AKR17): 6.25 µg/mL
- MIC (Ps. aeruginosa AK 109; read-out: Minimum Inhibitory Concentration (MIC), Ps. aeruginosa AK 109): 0.78 µg/mL
- MIC (E. coli CSH2 (RK1)): 0.025 µg/mL
- MIC (E. coli CSH(RE45)): 0.05 µg/mL
- MIC (Ps. cepacia 23; [5]): < 0.006 µg/mL

SMILES: CO/N=C(\C(=O)N[C@@H]1C(=O)N2C(C(=O)O)=C(CSc3nnc(-c4ccccc4)o3)CS[C@H]12)c1csc(N)n1 [compound 1, 7β-[2-(2-aminothiazol-4-yl)-2-methoxyiminoacetamido]-3-(5-phenyl-1,3,4-oxadiazol-2-yl)thiomethyl-3-cephem-4-carboxylic acid trifluoroacetate, reference compound]
- MIC (A. calcoaceticus No. 4; A. calcoaceticus No. 4, read-out: Minimum Inhibitory Concentration (MIC)): 100 µg/mL
- MIC (P. vulgaris HX-19): < 0.006 µg/mL
- MIC (K. pneumoniae PCI-602): 0.0125 µg/mL
- MIC (P. vulgaris No. 33; 16 h, *P. vulgaris No. 33, lactamase-producing strain, read-out: Minimum Inhibitory Concentration (MIC)): 0.78 µg/mL
- MIC (K. oxytoca GN10650): 6.25 µg/mL
- MIC (E. coli NIHJ JC2; NIHJJC2, E. coli NIHJ JC2, 10^6 CFU/ml, 37° C., 16 hours, read-out: Minimum Inhibitory Concentration (MIC)): 0.78 µg/mL
- MIC (K. pneumoniae No. 42; 16 h, *K. pneumoniae No. 42, lactamase-producing strain, read-out: Minimum Inhibitory Concentration (MIC)): 1.56 µg/mL
- MIC (S. aureus 209P NIHJ-JC1; [6]): 0.39 µg/mL
- MIC (E. cloacae Nek 39; *E. cloacae Nek 39, lactamase-producing strain, read-out: Minimum Inhibitory Concentration (MIC)): 3.12 µg/mL
- MIC (S. marcescens No. 16-2; [3]): 6.25 µg/mL
- MIC (E. cloacae 963; [4]): 1.56 µg/mL
- MIC (E. coli GN5482; 16 h, *E. coli GN5482, lactamase-producing strain, 10^6 CFU/ml, read-out: Minimum Inhibitory Concentration (MIC)): 0.78 µg/mL
- MIC (M. morganii GN5407; 16 h, *M. morganii GN5407, lactamase-producing strain, read-out: Minimum Inhibitory Concentration (MIC)): 0.78 µg/mL
- MIC (S. marcescens IAM 1184): 1.56 µg/mL
- MIC (Ps. aeruginosa IF03445; 16 h, Ps. aeruginosa IF03445, read-out: Minimum Inhibitory Concentration (MIC)): > 100 µg/mL
- MIC (Ps. aeruginosa AKR17; 16 h, Ps. aeruginosa AKR17, read-out: Minimum Inhibitory Concentration (MIC)): > 100 µg/mL
- MIC (Ps. aeruginosa AK 109; Ps. aeruginosa AK 109, read-out: Minimum Inhibitory Concentration (MIC)): 50 µg/mL
- MIC (E. coli CSH2 (RK1)): 0.39 µg/mL
- MIC (E. coli CSH(RE45)): 0.39 µg/mL
- MIC (Ps. cepacia 23; Burkholderia cepacia, 23, 16 h): 12.5 µg/mL
